Results: ChEMBL document CHEMBL1145379 (J Med Chem, 2007)

Experiments:
[1] = test system: Plasma; experiment: Anticoagulant potency in human plasma assessed as concentration for doubling of prothrombin time; format: functional
[2] = target: Coagulation factor X (Homo sapiens, UniProt P00742); experiment: Inhibition of human F10a; conditions: read-out: Ki app
[3] = target: Prothrombin (Homo sapiens, UniProt P00734); experiment: Inhibition of human F2a; conditions: read-out: Ki app
[4] = Clearance in Beagle dog at 1 mg/kg, iv; format: ADME, organism-based, Canis lupus familiaris; set-up: dose 1 mg/kg, route intravenous; conditions: in vivo
[5] = Volume of distribution at steady state in Beagle dog at 1 mg/kg, iv; format: ADME, organism-based, Canis lupus familiaris; set-up: dose 1 mg/kg, route intravenous; conditions: in vivo, read-out: Vss
[6] = Half life in Beagle dog at 1 mg/kg, iv; format: ADME, organism-based, Canis lupus familiaris; set-up: dose 1 mg/kg, route intravenous; conditions: in vivo
[7] = Cmax in Beagle dog at 10 mg/kg, po; format: ADME, organism-based, Canis lupus familiaris; set-up: dose 10 mg/kg, route oral; conditions: in vivo
[8] = Bioavailability in Beagle dog at 10 mg/kg, po normalized to 1 mg/kg, iv; format: ADME, organism-based, Canis lupus familiaris; conditions: in vivo
[9] = Distribution coefficient, log D at pH 7.4; format: physicochemical; conditions: octanol/water

Coagulation factor X, sequence (P00742 41-179 limits assumed): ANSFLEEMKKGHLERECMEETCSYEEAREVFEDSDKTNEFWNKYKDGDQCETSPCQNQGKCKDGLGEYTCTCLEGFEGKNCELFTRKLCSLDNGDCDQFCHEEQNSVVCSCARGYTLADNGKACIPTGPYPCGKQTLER
Coagulation factor X, sequence (P00742 235-488 limits assumed): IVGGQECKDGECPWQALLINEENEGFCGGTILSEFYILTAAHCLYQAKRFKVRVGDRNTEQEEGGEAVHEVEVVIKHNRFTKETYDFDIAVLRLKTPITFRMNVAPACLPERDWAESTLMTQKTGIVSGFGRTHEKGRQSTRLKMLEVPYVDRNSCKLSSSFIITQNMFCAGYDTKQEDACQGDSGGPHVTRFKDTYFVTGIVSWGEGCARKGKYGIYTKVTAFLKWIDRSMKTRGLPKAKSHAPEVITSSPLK

| Compound | Activity [1] [µM] | Ki [2] [nM] | Ki [3] [nM] | also measured |
| --- | --- | --- | --- | --- |
| COc1cc(Cl)cc(C(=O)Nc2ccc(Cl)cn2)c1NC(=O)c1scc(CN(C)C(N)=O)c1Cl | 2.6 | 0.026 | 340 |  |
| COc1cc(Cl)cc(C(=O)Nc2ccc(Cl)cn2)c1NC(=O)c1scc(CN(C)C2=NCC(C)O2)c1Cl (centres undefined) | 1.2 | 0.12 | 410 |  |
| COc1cc(Cl)cc(C(=O)Nc2ccc(Cl)cn2)c1NC(=O)c1scc(CN2CCN=C2C)c1Cl | 0.32 | ≤ 0.01 | 3300 |  |
| COc1cc(Cl)cc(C(=O)Nc2ccc(Cl)cn2)c1NC(=O)c1scc(CN)c1Cl | 4.2 | 1 | > 5000 |  |
| COc1cc(Cl)cc(C(=O)Nc2ccc(Cl)cn2)c1NC(=O)c1scc(CN(C)C(=O)NCCC(=O)O)c1Cl | 7 | 0.022 | 630 |  |
| COc1cc(Cl)cc(C(=O)Nc2ccc(Cl)cn2)c1NC(=O)c1scc(CN(C)c2ncc[nH]2)c1Cl | 1.8 | 0.02 | 860 |  |
| CCN(C)Cc1csc(C(=O)Nc2c(OC)cc(Cl)cc2C(=O)Nc2ccc(Cl)cn2)c1Cl | 1.4 | 0.22 | 1700 |  |
| CCN(Cc1csc(C(=O)Nc2c(OC)cc(Cl)cc2C(=O)Nc2ccc(Cl)cn2)c1Cl)C1=NC(C)CO1 (centres undefined) | 3.8 | 0.031 | 580 |  |
| COc1cc(Cl)cc(C(=O)Nc2ccc(Cl)cn2)c1NC(=O)c1scc(CNC(C)C)c1Cl |  | 1.4 | 5400 |  |
| COc1cc(Cl)cc(C(=O)Nc2ccc(Cl)cn2)c1NC(=O)c1scc(CN2CCCC2)c1Cl | 1.6 | 0.52 | 1400 |  |
| CCN(Cc1csc(C(=O)Nc2c(OC)cc(Cl)cc2C(=O)Nc2ccc(Cl)cn2)c1Cl)C1=NCCO1 | 0.57 | 0.012 | 470 |  |
| COCCN(Cc1csc(C(=O)Nc2c(OC)cc(Cl)cc2C(=O)Nc2ccc(Cl)cn2)c1Cl)C1=NCCO1 | 1.1 | 0.26 | 2000 |  |
| COc1cc(Cl)cc(C(=O)Nc2ccc(Cl)cn2)c1NC(=O)c1scc(CN2CCC(O)CC2)c1Cl | 3.2 | 2.2 | 770 |  |
| COc1cc(Cl)cc(C(=O)Nc2ccc(Cl)cn2)c1NC(=O)c1scc(CN(C)C(C)=N)c1Cl | 0.25 | ≤ 0.01 | 920 |  |
| COc1cc(Cl)cc(C(=O)Nc2ccc(Cl)cn2)c1NC(=O)c1scc(Cn2ccnc2NC(C)C)c1Cl | 2.3 | 0.008 | 1200 |  |
| COc1cc(Cl)cc(C(=O)Nc2ccc(Cl)cn2)c1NC(=O)c1scc(CN2CC(=O)NC2=N)c1Cl | 3.3 | 0.034 | 340 |  |
| COc1cc(Cl)cc(C(=O)Nc2ccc(Cl)cn2)c1NC(=O)c1scc(CN2CCN=C2SC)c1Cl | 0.53 | 0.004 | 2200 |  |
| COc1cc(Cl)cc(C(=O)Nc2ccc(Cl)cn2)c1NC(=O)c1scc(CN(C2=NCCO2)C(C)(C)C)c1Cl |  | 0.12 | 1700 |  |
| COc1cc(Cl)cc(C(=O)Nc2ccc(Cl)cn2)c1NC(=O)c1scc(CN2CCOCC2)c1Cl | 4.9 | 1.4 | 1400 |  |
| COc1cc(Cl)cc(C(=O)Nc2ccc(Cl)cn2)c1NC(=O)c1scc(Cn2ccnc2C)c1Cl | 1.4 | ≤ 0.01 | 440 |  |
| CCNC(=O)N(C)Cc1csc(C(=O)Nc2c(OC)cc(Cl)cc2C(=O)Nc2ccc(Cl)cn2)c1Cl | 5.8 | 0.02 | 450 |  |
| CCN(CC)Cc1csc(C(=O)Nc2c(OC)cc(Cl)cc2C(=O)Nc2ccc(Cl)cn2)c1Cl | 2.4 | 0.32 | 1500 |  |
| COc1cc(Cl)cc(C(=O)Nc2ccc(Cl)cn2)c1NC(=O)c1scc(CN(C)C(=N)N)c1Cl | 0.4 | ≤ 0.01 | 630 |  |
| COc1cc(Cl)cc(C(=O)Nc2ccc(Cl)cn2)c1NC(=O)c1scc(CN(C)CC(O)CO)c1Cl (centres undefined) | 3.2 | 0.26 | 1200 |  |
| COc1cc(Cl)cc(C(=O)Nc2ccc(Cl)cn2)c1NC(=O)c1scc(CN(C)C2=NC(=O)CO2)c1Cl | 2.2 | 0.026 | 90 |  |
| COc1cc(Cl)cc(C(=O)Nc2ccc(Cl)cn2)c1NC(=O)c1scc(CN(C)CCO)c1Cl | 1.6 | 0.24 | 1400 | clearance [4]: 27 mL/min/kg; Vd [5]: 4.4 L/kg; half-life [6]: 2.1 h; Cmax [7]: 1200 ng/mL; bioavailability [8]: > 100% |

| Compound | Activity [1] [µM] | Ki [2] [nM] | Ki [3] [nM] | also measured |
| --- | --- | --- | --- | --- |
| COc1cc(Cl)cc(C(=O)Nc2ccc(Cl)cn2)c1NC(=O)c1scc(CN(C)CC(C)O)c1Cl (centres undefined) | 1.5 | 0.4 | 2100 |  |
| COc1cc(Cl)cc(C(=O)Nc2ccc(Cl)cn2)c1NC(=O)c1scc(Cn2ccnc2)c1Cl | 2 | 0.022 | 510 |  |
| COc1cc(Cl)cc(C(=O)Nc2ccc(Cl)cc2)c1NC(=O)c1scc(CN2CCN(C)CC2)c1Cl | 4.2 | 0.43 | 1300 |  |
| COc1cc(Cl)cc(C(=O)Nc2ccc(Cl)cn2)c1NC(=O)c1scc(Cn2ccnc2N)c1Cl | 0.77 | 0.006 | 3500 |  |
| COc1cc(Cl)cc(C(=O)Nc2ccc(Cl)cn2)c1NC(=O)c1scc(CN(C)S(C)(=O)=O)c1Cl | 2.2 | 0.045 | 340 |  |
| COc1cc(Cl)cc(C(=O)Nc2ccc(Cl)cn2)c1NC(=O)c1scc(CN(C)c2ncco2)c1Cl | 4.2 | 0.059 | 60 |  |
| COc1cc(Cl)cc(C(=O)Nc2ccc(Cl)cn2)c1NC(=O)c1scc(CN(C)CCN2CCCC2)c1Cl | 0.24 | 0.019 | 190 |  |
| COc1cc(Cl)cc(C(=O)Nc2ccc(Cl)cn2)c1NC(=O)c1scc(CN(C)CC(C)(C)O)c1Cl | 5.3 | 0.71 | 1100 |  |
| CN1CCN(Cc2csc(C(=O)Nc3ccc(Cl)cc3C(=O)Nc3ccc(Cl)cn3)c2Cl)CC1 | 6.9 | 0.36 | 680 | logD [9]: 3.11 |
| COc1cc(Cl)cc(C(=O)Nc2ccc(Cl)cn2)c1NC(=O)c1scc(CN(C)C(=O)NCCO)c1Cl | 4.1 | 0.05 | 360 |  |
| COc1cc(Cl)cc(C(=O)Nc2ccc(Cl)cn2)c1NC(=O)c1scc(CN(C)C2=NCCC2)c1Cl | 0.4 | 0.004 | 970 |  |
| COc1cc(Cl)cc(C(=O)Nc2ccc(Cl)cn2)c1NC(=O)c1scc(CN2CCOC2=N)c1Cl | 0.26 | ≤ 0.01 | 1100 |  |
| COc1cc(Cl)cc(C(=O)Nc2ccc(Cl)cn2)c1NC(=O)c1scc(CN(C)C2=NCCS2)c1Cl | 1.8 | 0.024 | 100 |  |
| COc1cc(Cl)cc(C(=O)Nc2ccc(Cl)cn2)c1NC(=O)c1scc(CN(C)CCCO)c1Cl | 1.5 | 0.18 | 1100 |  |
| COc1cc(Cl)cc(C(=O)Nc2ccc(Cl)cn2)c1NC(=O)c1scc(CN2C=NCC2)c1Cl | 0.26 | 0.004 | 3300 |  |
| COc1cc(Cl)cc(C(=O)Nc2ccc(Cl)cn2)c1NC(=O)c1scc(CN(CC(F)(F)F)C2=NCCO2)c1Cl | 28 | 2.2 | > 5000 |  |
| COc1cc(Cl)cc(C(=O)Nc2ccc(Cl)cn2)c1NC(=O)c1scc(CN2CCSC2=N)c1Cl | 1.4 | ≤ 0.01 | 2600 |  |
| CCNc1nccn1Cc1csc(C(=O)Nc2c(OC)cc(Cl)cc2C(=O)Nc2ccc(Cl)cn2)c1Cl | 1.8 | 0.005 | 1100 |  |
| COc1cc(Cl)cc(C(=O)Nc2ccc(Cl)cn2)c1NC(=O)c1scc(CN2CCNC2=N)c1Cl | 0.27 | ≤ 0.01 | 1500 |  |
| COc1cc(Cl)cc(C(=O)Nc2ccc(Cl)cn2)c1NC(=O)c1scc(CN2CCN(C)CC2)c1Cl | 1.6 | 0.16 | 1500 | logD [9]: 2.75 |
| COc1cc(Cl)cc(C(=O)Nc2ccc(Cl)cn2)c1NC(=O)c1scc(CN(C)C(=O)NCCN2CCCC2)c1Cl | 1.1 | 0.036 | 140 |  |
| COc1cc(Cl)cc(C(=O)Nc2ccc(Cl)cn2)c1NC(=O)c1scc(CN(C)C2=NCCCO2)c1Cl | 0.22 | 0.012 | 160 |  |
| COc1cc(Cl)cc(C(=O)Nc2ccc(Cl)cn2)c1NC(=O)c1scc(CN(C)CCCN(C)C)c1Cl | 0.24 | 0.024 | 300 |  |
| CCNCc1csc(C(=O)Nc2c(OC)cc(Cl)cc2C(=O)Nc2ccc(Cl)cn2)c1Cl | 2.2 | 0.4 | 2600 |  |
| CN1CCN(Cc2csc(C(=O)Nc3ccc(Cl)cc3C(=O)Nc3ccc(Cl)cc3)c2Cl)CC1 | 12 | 0.76 | 840 | logD [9]: 2.96 |
